Experimental data reported in US7507792B2, “MDA-7 proteins and methods of use thereof” (The Trustees of Columbia University In The City of New York, priority 1993, dated 2009).
Like-named read-outs stand apart in the source and are kept apart here.

Experiments:
Type in all cases: cell-based, human
[1] = system: mda-6 (WAF1/CIP1/SDI1); conditions: HL-525; CHX 10 μg/ml 1, 3, 6 or 10 h, without or with TPA 3 nM
Procedure: HL-60 cells were originally provided by Dr. R. C. Gallo (National Cancer Institute, Bethesda, Md.) (Collins et al., 1978; Huberman & Callaham, 1979). HL-60 cells designated HL-525 were derived by cloning HL-60 cells after subculturing 102 times in the presence of increasing concentrations (up to 3 μM) of TPA at 5- to 8-day intervals (Homma et al., 1986; Mitchell et al., 1986). […] Prior to the experiments described in this study, the HL-525 cells were subcultured more than 20 times in the absence of TPA. Cells were grown in 100-mm tissue culture dishes in RPMI 1640 medium supplemented with 20% fetal bovine serum, penicillin (100 units/ml) and streptomycin (100 μg/ml) (Grand Island Biological Co., NY) at 37° C. in an atmosphere of 5% CO2 in air in a humidified incubator. The 1,25-(OH)2D3(Vit D3) and TPA were dissolved in a final concentration of 0.01% DMSO, and all-trans retinoic acid (RA) was dissolved in 0.1% DMSO in culture medium. […] Control cultures were treated with DMSO at a final concentration of 0.1% in culture medium. For experiments designed to test the effect of DMSO on HL-60 and HL-525 cells, DMSO was added to tissue culture medium at a final concentration of 1%. Stock solutions of CHX (10 mg/ml) were prepared in culture medium. CHX was added at a final concentration of 10 μg/ml. To examine a requirement for protein synthesis on mda-6 gene expression, HL-60 or HL-525 cells were seeded into 150 mm Petri dishes (5×10^5 cells/ml) in 30 ml of medium. CHX was added to a final concentration of 10 μg/ml 15 min prior to the addition of TPA to 3 nM. Cells were harvested at various times after addition of TPA for subsequent RNA isolation and analysis.
RNA was purified by centrifugation through a CsC1 cushion as described by Chirgwin et al. (1979). Ten μg of RNA was denatured with glyoxal/DMSO, electrophoresed on 1.0% agarose gels, transferred to nylon membranes, hybridized to a ^32P-labeled mda-6 probe (Jiang and Fisher, 1993) and then after stripping the membrane hybridized to a ^32P-labeled rat GAPDH probe (Fort et al., 1985), as described previously (Reddy et at., 1991; Su et al., 1991; Jiang et al., 1992). Following hybridization, the filters were washed and exposed for autoradiography (Reddy et al., 1991; Su et al., 1991; Jiang et al., 1992). mda-6 and GAPDH gene expression were also determined by reverse transcription-polymerase chain reaction (RT-PCR) as described (Adollahi et al. 1991; Lin et al., 1994). Total cytoplasmic RNA was treated with 0.5 units DNase (Boehringer-Mannheim Biochemicals)/μg RNA in 15% glycerol, 10 mM Tris, pH 7.5, 2.5 mM MgCl2, 0.1 mM EDTA, 80 mM KC1, 1 mM CaCl2 and 1 unit/ml RNasin (Promega) at 30° C. for 10 min. RNA was extracted with phenol-chloroform, precipitated with sodium acetate/ethanol and RNA pellets were resuspended in diethylpyrocarbonate-treated H2O. One μg of total RNA was reverse transcribed with 200 units of murine leukemia virus reverse transcriptase (Bethesda Research Laboratories) in 20 μl containing 1 mM deoxyribonucleotide triphosphates, 4 mM MgCl2, 10 mM Tris, pH 8.3, 50 mM KC1, 0.001% gelatin and 0.2 μg oligo-dT primer. Samples were diluted to 100 μl with buffer containing 0.2 mM deoxyribonucleotide triphosphates, 2 mM MgCl2, 10 mM Tris, pH 8.3, 50 mM KC1 and 0.001% gelatin. […]

[2] = system: mda-6 (WAF1/CIP1/SDI1); test: Induction of mda-6 (WAF1/CIP1/SDI1) expression in HL-60 cells (Northern blotting, RT-PCR); conditions: CHX 10 μg/ml 1, 3, 6 or 10 h, without or with TPA 3 nM
Procedure: HL-60 cells were originally provided by Dr. R. C. Gallo (National Cancer Institute, Bethesda, Md.) (Collins et al., 1978; Huberman & Callaham, 1979). HL-60 cells designated HL-525 were derived by cloning HL-60 cells after subculturing 102 times in the presence of increasing concentrations (up to 3 μM) of TPA at 5- to 8-day intervals (Homma et al., 1986; Mitchell et al., 1986). […] Prior to the experiments described in this study, the HL-525 cells were subcultured more than 20 times in the absence of TPA. Cells were grown in 100-mm tissue culture dishes in RPMI 1640 medium supplemented with 20% fetal bovine serum, penicillin (100 units/ml) and streptomycin (100 μg/ml) (Grand Island Biological Co., NY) at 37° C. in an atmosphere of 5% CO2 in air in a humidified incubator. The 1,25-(OH)2D3(Vit D3) and TPA were dissolved in a final concentration of 0.01% DMSO, and all-trans retinoic acid (RA) was dissolved in 0.1% DMSO in culture medium. […]
RNA was purified by centrifugation through a CsC1 cushion as described by Chirgwin et al. (1979). […] Following hybridization, the filters were washed and exposed for autoradiography (Reddy et al., 1991; Su et al., 1991; Jiang et al., 1992). mda-6 and GAPDH gene expression were also determined by reverse transcription-polymerase chain reaction (RT-PCR) as described (Adollahi et al. 1991; Lin et al., 1994). […]

[3] = system: MDA-6 (WAF1/CIP1/SDI1) protein; test: Immunoprecipitation of MDA-6 (WAF1/CIP1/SDI1) protein in HL-60 cells; conditions: TPA, DMSO (1%) or RA (1 μM), 12, 24, 48 and 72 h tested
Procedure: Immunoprecipitation analyses were performed as described previously (Duigou et al., 1991; Su et al. 1993). Logarithmically growing HL-60 cells were either untreated or treated for 12, 24, 48 or 72 h with TPA ([…]), RA (1 μM) or DMSO (1%) in 10-cm plates. Cultures were starved of methionine for 1 h at 37° C. in methionine-free medium, cells were concentrated by pelleting and labeled for 4 h at 37° C. in 1 ml of the same medium with 100 μCi of [^35S] (NEN; Express ^35S). After labeling, the cells were washed twice with ice-cold phosphate-buffered saline and lysed for 1 h on ice by the addition of RIPC (20 mM Tris-base, pH 7.5, 500 mM NaCl, 0.05% Nonidet P-40, 100 μg/ml phenylmethylsulfonyl fluoride and 0.02% sodium azide). The lysate was clarified by centrifugation in an Eppendorf microfuge at 10,000×g for 10 min at 4° C. Samples containing 4×10^6 counts were incubated with 2 μg of WAF1/CIP1 (C-19) (Santa Cruz Biotechnology) (or MDA-6 peptide-derived) rabbit polyclonal IgG or actin monoclonal antibody (Oncogene Sciences) with rocking at 4° C. for 24 h. The next day, 30 μl (packed volume) of protein G-agarose (Oncogene Sciences) was added to each tube, and incubation with rocking at 4° C. continued for another hour. The protein G pellets were then washed five times with 1 ml of ice-cold RIPC:phosphate-buffered saline (1:1, v/v). Thirty μl of sodium dodecyl sulfate-polyacrylamide gel electrophoresis buffer were added to the pellets, and the sample was heated at 87° C. for 3 min. The samples were loaded onto an 10% polyacrylamide gel and run overnight at 40 V. The gel contained Rainbow protein markers (Amersham) for sizing. Gels were fixed with 10% acetic acid plus 10% methanol for 30 min, incubated in DMSO for 30 min, incubated with 10% 2,5-diphenyloxazole in DMSO for 30 min, washed three times with cold water (10 min each), dried and exposed to film.

C[C@@H]1C[C@@H]([C@H](O)CC2CC(=O)NC(=O)C2)C(=O)[C@@H](C)C1 [CHX, cycloheximide] was tested, and the “mda-6 expression in the presence of cycloheximide” value [1] was “induces mda-6 expression” and the “mda-6 expression in the presence of cycloheximide” value [2] was “induction of mda-6”.
For C[S+](C)[O-] [DMSO, dimethyl sulfoxide], the “time of treatment at which MDA-6 protein is detected” value [3] was 48 h.
